# Experimental data published in PubChem BioAssay (NCI).
#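 Grown in 96-well plates, cells were treated for 48 hours with each compound at five concentrations. Insufficient inhibition: endpoint recorded as highest concentration tested. The concentration for 50% growth inhibition is given as GI50. Definition used: TGI = concentration required for complete inhibition of growth.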
# Experiments:
# Assay in all cases: DTP human tumour cell line panel, 48 h
# [1] = system: HCT-116 colon
# [2] = system: NCI-H23 lung
# [3] = system: HL-60(TB) leukemia
# [4] = system: OVCAR-5 ovarian
# [5] = system: KM12 colon
# [6] = system: SK-OV-3 ovarian
# [7] = system: MALME-3M melanoma
# [8] = system: IGROV1 ovarian
# [9] = system: RXF 393 renal
# [10] = system: COLO 205 colon
# [11] = system: A549 NSCLC
# [12] = system: SK-MEL-28 melanoma
# [13] = system: HS 578T breast
# [14] = system: SNB-75 CNS
# [15] = system: M14 melanoma
# [16] = system: SW-620 colon
# [17] = system: SF-295 CNS
# [18] = system: PC-3 prostate
# [19] = system: NCI/ADR-RES ovarian
# [20] = system: OVCAR-8 ovarian
# [21] = system: ACHN renal
# [22] = system: LOX IMVI melanoma
# [23] = system: SR leukemia
# [24] = system: RPMI-8226 leukemia
# [25] = system: OVCAR-4 ovarian
# [26] = system: SNB-19 CNS
# [27] = system: TK-10 renal
# [28] = system: EKVX NSCLC
# [29] = system: 786-0 renal
# [30] = system: HT29 colon
# [31] = system: SF-268 CNS
# [32] = system: HOP-92 NSCLC
# [33] = system: K-562 leukemia
# [34] = system: CCRF-CEM leukemia
# [35] = system: MDA-MB-231 breast
# [36] = system: SK-MEL-5 melanoma
# [37] = system: SN12C renal
# [38] = system: BT-549 breast
# [39] = system: A498 renal
# [40] = system: U251 CNS
# [41] = system: UO-31 renal
# [42] = system: MDA-MB-435
# [43] = system: UACC-62 melanoma
# [44] = system: DU-145 prostate
# [45] = system: SF-539 CNS
# [46] = system: MCF7 breast
# [47] = system: HOP-62 NSCLC
# [48] = system: NCI-H460 lung
# [49] = system: HCC-2998 colon
# [50] = system: T-47D breast
# [51] = system: NCI-H522 lung
# [52] = system: CAKI-1 renal
# [53] = system: UACC-257 melanoma
# [54] = system: HCT-15 colon
# [55] = system: NCI-H226 lung
# [56] = system: MOLT-4 leukemia
smiles,measurement,setting,value
O=C(N/N=C\c1ccc(F)cc1)c1ccc2nc(-c3ccc(Br)cc3)[nH]c2c1,GI50,[1],1.87 µM
same,TGI,[1],3.95 µM
same,GI50,[2],1.88 µM
same,TGI,[2],3.67 µM
same,GI50,[3],14.6 µM
same,TGI,[3],> 100 µM
same,GI50,[4],2.28 µM
same,TGI,[4],5.73 µM
same,GI50,[5],3.2 µM
same,TGI,[5],15.1 µM
same,GI50,[6],2.09 µM
same,TGI,[6],5.17 µM
same,GI50,[7],1.65 µM
same,TGI,[7],3.43 µM
same,GI50,[8],1.88 µM
same,TGI,[8],3.89 µM
same,GI50,[9],1.74 µM
same,TGI,[9],3.53 µM
same,GI50,[10],1.91 µM
same,TGI,[10],4.43 µM
same,GI50,[11],1.9 µM
same,TGI,[11],3.7 µM
same,GI50,[12],1.86 µM
same,TGI,[12],3.8 µM
same,GI50,[13],2.04 µM
same,TGI,[13],5.39 µM
same,GI50,[14],1.87 µM
same,TGI,[14],4.41 µM
same,GI50,[15],2.08 µM
same,TGI,[15],4.52 µM
same,GI50,[16],1.9 µM
same,TGI,[16],3.76 µM
same,GI50,[17],2.18 µM
same,TGI,[17],5.24 µM
same,GI50,[18],1.79 µM
same,TGI,[18],3.4 µM
same,GI50,[19],7.97 µM
same,TGI,[19],> 100 µM
same,GI50,[20],1.98 µM
same,TGI,[20],4.14 µM
same,GI50,[21],1.81 µM
same,TGI,[21],3.69 µM
same,GI50,[22],1.74 µM
same,TGI,[22],3.54 µM
same,GI50,[23],2.75 µM
same,TGI,[23],8.79 µM
same,GI50,[24],2.97 µM
same,TGI,[24],9.39 µM
same,GI50,[25],2.51 µM
same,TGI,[25],7.13 µM
same,GI50,[26],2.27 µM
same,TGI,[26],4.96 µM
same,GI50,[27],2.59 µM
same,TGI,[27],5.48 µM
same,GI50,[28],2.09 µM
same,TGI,[28],4.8 µM
same,GI50,[29],2.03 µM
same,TGI,[29],3.88 µM
same,GI50,[30],1.85 µM
same,TGI,[30],3.47 µM
same,GI50,[31],3.26 µM
same,TGI,[31],13 µM
same,GI50,[32],2.13 µM
same,TGI,[32],4.54 µM
same,GI50,[33],2.73 µM
same,TGI,[33],8.09 µM
same,GI50,[34],3.5 µM
same,TGI,[34],32.1 µM
same,GI50,[35],1.93 µM
same,TGI,[35],4.49 µM
same,GI50,[36],3.25 µM
same,TGI,[36],13.4 µM
same,GI50,[37],1.78 µM
same,TGI,[37],3.63 µM
same,GI50,[38],2.34 µM
same,TGI,[38],6.08 µM
same,GI50,[39],1.94 µM
same,TGI,[39],5.31 µM
same,GI50,[40],1.91 µM
same,TGI,[40],3.38 µM
same,GI50,[41],1.6 µM
same,TGI,[41],3.31 µM
same,GI50,[42],1.96 µM
same,TGI,[42],4.12 µM
same,GI50,[43],2.69 µM
same,TGI,[43],8.76 µM
same,GI50,[44],2.07 µM
same,TGI,[44],4.97 µM
same,GI50,[45],1.74 µM
same,TGI,[45],3.42 µM
same,GI50,[46],1.7 µM
same,TGI,[46],3.88 µM
same,GI50,[47],1.86 µM
same,TGI,[47],3.72 µM
same,GI50,[48],1.72 µM
same,TGI,[48],3.27 µM
same,GI50,[49],2.28 µM
same,TGI,[49],5.48 µM
same,GI50,[50],1.78 µM
same,TGI,[50],3.92 µM
same,GI50,[51],1.78 µM
same,TGI,[51],3.96 µM
same,GI50,[52],2.2 µM
same,TGI,[52],5.41 µM
same,GI50,[53],2.03 µM
same,TGI,[53],4.48 µM
same,GI50,[54],2.19 µM
same,TGI,[54],5.08 µM
same,GI50,[55],2.62 µM
same,TGI,[55],16.6 µM
same,GI50,[56],2.17 µM
same,TGI,[56],5.62 µM
CC(=O)Nc1cccc(-n2cnc3cc(-c4ccc(O)cc4)ccc32)c1,GI50,[1],0.413 µM
same,TGI,[1],27.2 µM
same,GI50,[3],0.313 µM
same,TGI,[3],10.6 µM
same,GI50,[4],10.6 µM
same,TGI,[4],> 100 µM
same,GI50,[5],5.42 µM
same,TGI,[5],68.2 µM
same,GI50,[6],1.16 µM
same,TGI,[6],22.1 µM
same,GI50,[7],0.583 µM
same,TGI,[7],49.8 µM
same,GI50,[8],0.696 µM
same,TGI,[8],29.1 µM
same,GI50,[9],0.834 µM
same,TGI,[9],8.27 µM
same,GI50,[10],3.86 µM
same,TGI,[10],40.1 µM
same,GI50,[11],0.73 µM
same,TGI,[11],80.9 µM
same,GI50,[13],0.254 µM
same,TGI,[13],2.46 µM
same,GI50,[14],0.232 µM
same,TGI,[14],0.929 µM
same,GI50,[15],0.289 µM
same,TGI,[15],77 µM
same,GI50,[16],0.368 µM
same,TGI,[16],36.5 µM
same,GI50,[17],0.601 µM
same,TGI,[17],11 µM
same,GI50,[18],1.43 µM
same,TGI,[18],42.1 µM
same,GI50,[19],0.428 µM
same,TGI,[19],11.5 µM
same,GI50,[20],0.618 µM
same,TGI,[20],17 µM
same,GI50,[21],0.894 µM
same,TGI,[21],16.8 µM
same,GI50,[22],0.523 µM
same,TGI,[22],16.3 µM
same,GI50,[23],0.182 µM
same,TGI,[23],> 100 µM
same,GI50,[24],0.494 µM
same,TGI,[24],9.23 µM
same,GI50,[25],2.42 µM
same,TGI,[25],43.1 µM
same,GI50,[26],0.872 µM
same,TGI,[26],> 100 µM
same,GI50,[27],5.95 µM
same,TGI,[27],47.4 µM
same,GI50,[29],0.78 µM
same,TGI,[29],23.2 µM
same,GI50,[30],3.24 µM
same,TGI,[30],19 µM
same,GI50,[31],0.982 µM
same,TGI,[31],57.8 µM
same,GI50,[32],0.94 µM
same,TGI,[32],28.8 µM
same,GI50,[33],0.169 µM
same,TGI,[33],> 100 µM
same,GI50,[34],0.515 µM
same,TGI,[34],68.2 µM
same,GI50,[35],0.46 µM
same,TGI,[35],> 100 µM
same,GI50,[36],0.316 µM
same,TGI,[36],15.8 µM
same,GI50,[37],0.546 µM
same,TGI,[37],41.4 µM
same,GI50,[38],0.342 µM
same,TGI,[38],11.2 µM
same,GI50,[39],0.249 µM
same,TGI,[39],0.982 µM
same,GI50,[40],0.365 µM
same,TGI,[40],30.2 µM
same,GI50,[41],0.716 µM
same,TGI,[41],15 µM
same,GI50,[43],0.35 µM
same,TGI,[43],17.6 µM
same,GI50,[44],1.76 µM
same,TGI,[44],23.6 µM
same,GI50,[45],0.371 µM
same,TGI,[45],5.95 µM
same,GI50,[46],0.377 µM
same,TGI,[46],22.6 µM
same,GI50,[47],0.82 µM
same,TGI,[47],22.5 µM
same,GI50,[48],0.386 µM
same,TGI,[48],14.6 µM
same,GI50,[49],3.46 µM
same,TGI,[49],49 µM
same,GI50,[50],0.534 µM
same,TGI,[50],19.6 µM
same,GI50,[51],0.176 µM
same,TGI,[51],0.503 µM
same,GI50,[52],0.668 µM
same,TGI,[52],14 µM
same,GI50,[53],0.716 µM
same,TGI,[53],45.5 µM
same,GI50,[54],0.333 µM
same,TGI,[54],18.9 µM
same,GI50,[55],0.779 µM
same,TGI,[55],4.26 µM
same,GI50,[56],0.428 µM
same,TGI,[56],16.2 µM
